Measurements: patent US6756402B2, “Cyclipostins, process for their preparation and use thereof” (Aventis Pharma Deutschland GmbH, priority 2000, dated 2004)
pIC50: −log10 of the molar value. Read-outs that look alike come from different tables or passages of the source.

How the values were obtained:
[1] = Solubility (characterization of the isolated substance)
[2] = biological target: T1, hormone-sensitive lipase (HSL) (Rattus norvegicus, UniProt P15304); assay: Inhibition of partially purified hormone-sensitive lipase (HSL) from rats, [3H]trioleoylglycerol substrate; type: biochemical
T1 construct: Isolated rat lipocytes were obtained from epididymal fatty tissue of nontreated male rats; from tissue; host or cells: rat epididymal fat tissue lipocytes (Wistar), partially purified
T1 sequence (P15304 1-768 isoform P15304-2): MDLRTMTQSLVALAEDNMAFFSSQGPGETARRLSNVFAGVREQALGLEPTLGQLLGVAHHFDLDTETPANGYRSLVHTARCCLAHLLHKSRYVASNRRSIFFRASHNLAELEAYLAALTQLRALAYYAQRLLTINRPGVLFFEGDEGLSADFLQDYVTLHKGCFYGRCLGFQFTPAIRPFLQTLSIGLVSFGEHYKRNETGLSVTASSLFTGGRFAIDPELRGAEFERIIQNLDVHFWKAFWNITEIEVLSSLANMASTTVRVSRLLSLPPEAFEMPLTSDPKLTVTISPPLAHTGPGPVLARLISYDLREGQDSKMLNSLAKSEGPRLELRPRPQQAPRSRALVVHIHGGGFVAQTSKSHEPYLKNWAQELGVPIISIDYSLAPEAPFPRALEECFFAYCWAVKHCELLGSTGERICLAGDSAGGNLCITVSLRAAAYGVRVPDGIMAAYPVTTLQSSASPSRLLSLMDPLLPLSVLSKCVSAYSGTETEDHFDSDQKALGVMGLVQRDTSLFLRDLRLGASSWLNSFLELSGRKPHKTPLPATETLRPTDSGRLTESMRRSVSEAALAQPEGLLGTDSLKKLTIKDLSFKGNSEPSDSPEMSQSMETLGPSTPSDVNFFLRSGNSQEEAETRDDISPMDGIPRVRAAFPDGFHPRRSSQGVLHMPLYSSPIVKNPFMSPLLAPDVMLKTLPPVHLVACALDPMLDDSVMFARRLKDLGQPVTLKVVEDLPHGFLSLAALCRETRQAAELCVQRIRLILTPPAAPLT
Procedure: Isolated rat lipocytes were obtained from epididymal fatty tissue of nontreated male rats (Wistar, 220-250 g) by collagenase treatment according to published procedures (e.g., S. Nilsson et al., Anal. Biochem. 158:399-407 (1986); G. Fredrikson et al., J. Biol. Chem. 256, 6311-6320 (1981); H. Tornquist et al., J. Biol. Chem. 251:813-819 (1976)). The lipocytes from 10 rats were washed three times by flotation with 50 ml of homogenization buffer in each case ([…] TRIS/HCl, pH 7.4, 0.25 M sucrose, 1 mM EDTA, 1 mM DTT, 10 μg/ml of leupeptin, 10 μg/ml of antipain, 20 μg/ml of pepstatin) and finally taken up in 10 ml of homogenization buffer. The lipocytes were homogenized in a Teflon-in-glass homogenizer (Braun-Melsungen) by means of 10 strokes at 1500 rpm and 15° C. The homogenisate was centrifuged (Sorvall SM24 tubes, 5000 rpm, 10 min, 4° C.). The lower layer between the overlying fatty layer and the pellet was removed and the centrifugation was repeated. The lower layer resulting from this was centrifuged again (Sorvall SM24 tubes, 20000 rpm, 45 min, 4° C.). The lower layer was removed and treated with 1 g of heparin-sepharose (Pharmacia-Biotech, CL-6B, washed 5× with 25 mM Tris/HCl, pH 7.4, 150 mM NaCl). After incubation for 60 min at 4° C. (shaken at intervals of 15 min), the batch was centrifuged (Sorvall SM24 tubes, 3000 rpm, 10 min, 4° C.). The supernatant was brought to pH 5.2 by addition of acetic acid and incubated at 4° C. for 30 min. The precipitates were collected by centrifugation (Sorvall SS34, 12000 rpm, 10 min, 4° C.) and suspended in 2.5 ml of 20 mM Tris/HCl, pH 7.0, 1 mM EDTA, 65 mM NaCl, 13% of sucrose, 1 mM DTT, 10 μg/ml of leupeptin/pepstatin/antipain. The suspension was dialyzed overnight at 4° C. against 25 mM Tris/HCl, pH 7.4, 50% of glycerol, 1 mM DTT, 10 μg/ml of leupeptin, pepstatin, and antipain, and then applied to a hydroxylapetite column (0.1 g per 1 ml of suspension, equilibrated with 10 mM potassium phosphate, pH 7.0, 30% of glycerol, 1 mM DTT). The column was washed with four volumes of equilibration buffer at a flow rate of 20 to 30 ml/h. The HSL was eluted with a volume of equilibration buffer which contained 0.5 M potassium phosphate, then dialyzed (see above), and was concentrated 5 to 10 times by ultrafiltration (Amicon Diaflo PM 10 Filter) at 4° C. The partially purified HSL could be stored at −70° C. for 4 to 6 weeks.
For the preparation of the substrates, 25-50 μCi of [^3H]trioleoylglycerol (in toluene), 6.8 μMol of unlabeled trioleoylglycerol and 0.6 mg of phospholipid (phosphatidylcholine/phosphatidylinositol 3:1 w/v) were mixed, dried by means of N2 and then taken up in 2 ml of 0.1 M KPi (pH 7.0) by ultrasonic treatment (Branson 250, microtips, setting 1-2, 2×1 min at a 1 min interval). After addition of 1 ml of KPi and fresh ultrasonic treatment (4×30 sec on ice at 30 sec intervals), 1 ml of 20% BSA (bovine serum albumin) (in KPi) was added (final concentration of trioleoylglycerol at 1.7 mM). For the reaction, 100 μl of substrate solution were pipetted into 100 μl of HSL solution (HSL prepared as above, diluted in 20 mM KPi, pH 7.0, 1 mM EDTA, 1 mM DTT, 0.02% BSA, 20 μg/ml of pepstatin, 10 μg/ml of leupeptin) and incubated at 37° C. for 30 min. After addition of 3.25 ml of methanol/chloroform/heptane (10:9:7) and of 1.05 ml 0.1 M K2CO3, 0.1 M boric acid (pH 10.5), the batch was mixed well and finally centrifuged (800×g, 20 min). After phase separation, one equivalent of the upper phase (1 ml) was removed and the radioactivity was determined by liquid scintillation measurement.
Substances were generally tested in four independent batches. The inhibition of the enzymatic activity of the HSL by a test substance was determined by the comparison with a noninhibited control reaction. The calculation of the IC50 value was carried out by means of an inhibitory curve using at least 10 concentrations of the test substance. […]

[3] = biological target: T2, HSL from rats (Rattus norvegicus, UniProt P15304); assay: Inhibition of HSL from rats with NBD as substrate; type: biochemical
T2 construct: from tissue; host or cells: rat
T2 sequence (P15304 1-768 isoform P15304-2): T1 sequence (P15304 1-768 isoform P15304-2)

[4] = tested on: lipolysis in rat adipocytes; assay: Inhibition of lipolysis in rat adipocytes; type: cell-based; conditions: Adipocyte
[5] = tested on: lipases; conditions: background statement on the known methyl analogue; cited from earlier work
[6] = trioleoylglycerol as substrate, read-out: IC50, inhibition of hormone-sensitive lipase from rats
[7] = NBD (4-chloro-7-nitrobenzo-2-oxa-1,3-diazole) as substrate, read-out: concentrations inhibiting HSL from rats

| SMILES | solubility in oxygen-containing organic solvents [1] | solubility in water and petroleum ether [1] | pIC50 [2, 6] | pIC50 [3] | pIC50 [4] | pIC50 [2] | pIC50 [3, 7] | selective lipase-inhibiting properties [5] |
| --- | --- | --- | --- | --- | --- | --- | --- | --- |
| CCCCCCCCCCCCCCCCOP1(=O)OCC2COC(=O)C2=C(CCC)O1 (stereo not shown) [Cyclipostin T] | soluble | only slightly soluble | 6.70 |  |  |  |  |  |
| CCCC1=C2C(=O)OCC2COP(=O)(OCCCCCCCCCCCCCC(C)C)O1 (stereo not shown) [Cyclipostin T2] | soluble | only slightly soluble | 7.22 |  |  |  |  |  |
| CC1=C2C(=O)OCC2COP(=O)(OCCCCCCCCCCCCCC(C)C)O1 (stereo not shown) [Cyclipostin P2] | soluble | only slightly soluble |  | 8.00 to 8.40 | ~6.70 | 7.40 |  |  |
| CCCCC(O)CCCCCCCCCCCOP1(=O)OCC2COC(=O)C2=C(C)O1 (stereo not shown) [Cyclipostin A] | soluble | only slightly soluble | 7.70 |  | ~6.70 |  | 8.00 to 8.40 |  |
| CCC(=O)CCCCCCCCCCCCCOP1(=O)OC[C@H]2COC(=O)C2=C(C)O1 (stereo partly shown) [Cyclipostin F] | soluble | only slightly soluble |  |  |  |  |  |  |
| CCCCCCCCCCCCCCCCOP1(=O)OCC2COC(=O)C2=C(CC)O1 (stereo not shown) [Cyclipostin S] | soluble | only slightly soluble | 7.70 |  |  |  |  |  |
| CCCCCCCCCCCCCCCOP1(=O)OCC2COC(=O)C2=C(C)O1 (stereo not shown) [Cyclipostin R] | soluble | only slightly soluble | 8.00 |  | ~6.70 |  | 8.00 to 8.40 |  |
| CCCCCCCCCCCCCCOP1(=O)OCC2COC(=O)C2=C(C)O1 (stereo not shown) [Cyclipostin N] | soluble | only slightly soluble | 6.35 |  |  |  |  |  |
| CCCC(O)CCCCCCCCCCCCO[P@]1(=O)OC[C@H]2COC(=O)C2=C(C)O1 (stereo partly shown) [Cyclipostin B] | soluble | only slightly soluble |  |  |  |  |  |  |
| CCCCCCCCCCCCCCCCOP1(=O)OCC2COC(=O)C2=C(C)O1 (stereo not shown) [Cyclipostin P] | soluble | only slightly soluble |  | 8.00 to 8.40 | ~6.70 | 7.52 |  |  |
| CO[P@]1(=O)OC[C@H]2COC(=O)C2=C(C)O1 [CGA 134 736] |  |  |  |  |  |  |  | no selective lipase-inhibiting properties |
| CC1=C2C(=O)OCC2COP(=O)(OCCCCCCCCCCCCC(C)C)O1 (stereo not shown) [Cyclipostin R2] | soluble | only slightly soluble | 6.66 |  |  |  |  |  |
